# Measured values taken from ChEMBL document CHEMBL3885861, “Open TG-GATES”.
# Species on record: Rattus norvegicus
# Assay: Open TG-GATES - Regimen: Daily Repeat
# Assay type: toxicity, organism-based, Sprague-Dawley
# Set-up: regimen Daily Repeat, gender Male, age 6 weeks
# Settings: in vivo, po, route gavage; for APTT / Bas / Eos / Fbg / Hb / Ht / Lym / MCH / MCHC / MCV / Mono / Neu / PT / Plat / RBC / Ret / WBC: tissue Blood; for KIDNEY_TOTAL: tissue Kidney; for LIVER: tissue Liver; for A/G / ALP / ALT / AST / BUN / CRE / Ca / Cl / DBIL / GLC / IP / K / LDH / Na / PL / RALB / TBIL / TC / TG / TP / gamma-GTP: tissue Plasma
# [1] = 20 mg/kg, 72 h, dose level Middle, time 3 day
# [2] = 20 mg/kg, […], dose level Middle, time 7 day
# [3] = 20 mg/kg, […], dose level Middle, time 14 day
# [4] = 20 mg/kg, […], dose level Middle, time 28 day
# [5] = 100 mg/kg, 72 h, dose level High, time 3 day
# [6] = 100 mg/kg, […], dose level High, time 7 day
# [7] = 100 mg/kg, […], dose level High, time 14 day
# [8] = 100 mg/kg, […], dose level High, time 28 day
structure (smiles),measurement,setting,value
CN(CCOc1ccc(CC2SC(=O)NC2=O)cc1)c1ccccn1.O=C(O)/C=C\C(=O)O (stereo not drawn) [ROSIGLITAZONE MALEATE],TERMINAL_BW,[1],255.1 g
same,APTT,[1],16.4 s
same,Bas,[1],0%
same,Eos,[1],0.8%
same,Fbg,[1],231.2 mg/dL
same,Hb,[1],12.7 g/dL
same,Ht,[1],38.6%
same,Lym,[1],75.2%
same,MCH,[1],21 pg
same,MCHC,[1],32.8%
same,MCV,[1],64 fL
same,Mono,[1],8%
same,Neu,[1],16.6%
same,PT,[1],11.7 s
same,Plat,[1],136.2 x10_4/uL
same,RBC,[1],603.2 x10_4/ul
same,Ret,[1],7%
same,WBC,[1],83.2 x10_2/uL
same,KIDNEY_TOTAL,[1],0.7 g
same,LIVER,[1],12.7 g
same,A/G,[1],2.3
same,ALP,[1],1378.6 IU/L
same,ALT,[1],38.8 IU/L
same,AST,[1],67.8 IU/L
same,BUN,[1],16.4 mg/dL
same,CRE,[1],0.2 mg/dL
same,Ca,[1],11.7 mg/dL
same,Cl,[1],103.6 meq/L
same,DBIL,[1],0.012 mg/dL
same,GLC,[1],187.4 mg/dL
same,IP,[1],7.6 mg/dL
same,K,[1],4.3 meq/L
same,LDH,[1],93.4 IU/L
same,Na,[1],140 meq/L
same,PL,[1],147.4 mg/dL
same,RALB,[1],3.9 g/dL
same,TBIL,[1],0.04 mg/dL
same,TC,[1],80.4 mg/dL
same,TG,[1],79.6 mg/dL
same,TP,[1],5.6 g/dL
same,gamma-GTP,[1],0 IU/L
same,TERMINAL_BW,[2],281.6 g
same,TERMINAL_BW,[3],355.9 g
same,TERMINAL_BW,[4],432 g
same,APTT,[2],15.7 s
same,Bas,[2],0%
same,Eos,[2],0.8%
same,Fbg,[2],225.6 mg/dL
same,Hb,[2],12.6 g/dL
same,Ht,[2],38.6%
same,Lym,[2],76%
same,MCH,[2],20.7 pg
same,MCHC,[2],32.5%
same,MCV,[2],63.5 fL
same,Mono,[2],6%
same,Neu,[2],17.4%
same,PT,[2],11.9 s
same,Plat,[2],123 x10_4/uL
same,RBC,[2],608.4 x10_4/ul
same,Ret,[2],6.5%
same,WBC,[2],87.6 x10_2/uL
same,APTT,[3],15.9 s
same,Bas,[3],0%
same,Eos,[3],0.8%
same,Fbg,[3],240.4 mg/dL
same,Hb,[3],13 g/dL
same,Ht,[3],39.7%
same,Lym,[3],79.8%
same,MCH,[3],20.7 pg
same,MCHC,[3],32.8%
same,MCV,[3],63 fL
same,Mono,[3],6%
same,Neu,[3],13.6%
same,PT,[3],11.6 s
same,Plat,[3],110.8 x10_4/uL
same,RBC,[3],631.8 x10_4/ul
same,Ret,[3],3.7%
same,WBC,[3],108.6 x10_2/uL
same,APTT,[4],15.9 s
same,Bas,[4],0%
same,Eos,[4],1%
same,Fbg,[4],252.2 mg/dL
same,Hb,[4],13.9 g/dL
same,Ht,[4],42.4%
same,Lym,[4],81.8%
same,MCH,[4],19.2 pg
same,MCHC,[4],32.8%
same,MCV,[4],58.6 fL
same,Mono,[4],6%
same,Neu,[4],11%
same,PT,[4],11.9 s
same,Plat,[4],110 x10_4/uL
same,RBC,[4],725 x10_4/ul
same,Ret,[4],2.6%
same,WBC,[4],105 x10_2/uL
same,KIDNEY_TOTAL,[2],0.8 g
same,KIDNEY_TOTAL,[3],0.8 g
same,KIDNEY_TOTAL,[4],0.8 g
same,LIVER,[2],13.5 g
same,LIVER,[3],16.1 g
same,LIVER,[4],16.8 g
same,A/G,[2],2.1
same,ALP,[2],1428.6 IU/L
same,ALT,[2],36.2 IU/L
same,AST,[2],67.6 IU/L
same,BUN,[2],18.8 mg/dL
same,CRE,[2],0.4 mg/dL
same,Ca,[2],11.3 mg/dL
same,Cl,[2],104.8 meq/L
same,DBIL,[2],0.01 mg/dL
same,GLC,[2],171.2 mg/dL
same,IP,[2],7.8 mg/dL
same,K,[2],4.3 meq/L
same,LDH,[2],92 IU/L
same,Na,[2],141.2 meq/L
same,PL,[2],134.8 mg/dL
same,RALB,[2],3.8 g/dL
same,TBIL,[2],0.032 mg/dL
same,TC,[2],71.8 mg/dL
same,TG,[2],55.2 mg/dL
same,TP,[2],5.7 g/dL
same,gamma-GTP,[2],0.4 IU/L
same,A/G,[3],2
same,ALP,[3],1500.8 IU/L
same,ALT,[3],35.2 IU/L
same,AST,[3],64.2 IU/L
same,BUN,[3],19 mg/dL
same,CRE,[3],0.4 mg/dL
same,Ca,[3],11.1 mg/dL
same,Cl,[3],106.4 meq/L
same,DBIL,[3],0.01 mg/dL
same,GLC,[3],188 mg/dL
same,IP,[3],7.3 mg/dL
same,K,[3],4.2 meq/L
same,LDH,[3],63 IU/L
same,Na,[3],143.8 meq/L
same,PL,[3],134.4 mg/dL
same,RALB,[3],3.8 g/dL
same,TBIL,[3],0.032 mg/dL
same,TC,[3],73.8 mg/dL
same,TG,[3],69.4 mg/dL
same,TP,[3],5.6 g/dL
same,gamma-GTP,[3],1 IU/L
same,A/G,[4],1.8
same,ALP,[4],1013.6 IU/L
same,ALT,[4],34 IU/L
same,AST,[4],61.2 IU/L
same,BUN,[4],17.8 mg/dL
same,CRE,[4],0.4 mg/dL
same,Ca,[4],10.6 mg/dL
same,Cl,[4],105.8 meq/L
same,DBIL,[4],0.01 mg/dL
same,GLC,[4],180.4 mg/dL
same,IP,[4],6.5 mg/dL
same,K,[4],4.2 meq/L
same,LDH,[4],87.2 IU/L
same,Na,[4],140.8 meq/L
same,PL,[4],122.8 mg/dL
same,RALB,[4],3.7 g/dL
same,TBIL,[4],0.032 mg/dL
same,TC,[4],64.6 mg/dL
same,TG,[4],65.2 mg/dL
same,TP,[4],5.8 g/dL
same,gamma-GTP,[4],0.4 IU/L
same,TERMINAL_BW,[5],241.9 g
same,APTT,[5],16.1 s
same,Bas,[5],0%
same,Eos,[5],1%
same,Fbg,[5],214 mg/dL
same,Hb,[5],12 g/dL
same,Ht,[5],36.4%
same,Lym,[5],73.4%
same,MCH,[5],21.1 pg
same,MCHC,[5],33%
same,MCV,[5],63.8 fL
same,Mono,[5],7.2%
same,Neu,[5],19.2%
same,PT,[5],11.7 s
same,Plat,[5],122 x10_4/uL
same,RBC,[5],570.8 x10_4/ul
same,Ret,[5],7.7%
same,WBC,[5],111.2 x10_2/uL
same,KIDNEY_TOTAL,[5],0.7 g
same,LIVER,[5],12.3 g
same,A/G,[5],2.5
same,ALP,[5],1258 IU/L
same,ALT,[5],44.4 IU/L
same,AST,[5],74.2 IU/L
same,BUN,[5],17.2 mg/dL
same,CRE,[5],0.2 mg/dL
same,Ca,[5],11.4 mg/dL
same,Cl,[5],106.2 meq/L
same,DBIL,[5],0.01 mg/dL
same,GLC,[5],179.8 mg/dL
same,IP,[5],8.1 mg/dL
same,K,[5],4.1 meq/L
same,LDH,[5],115.6 IU/L
same,Na,[5],141.8 meq/L
same,PL,[5],142.2 mg/dL
same,RALB,[5],3.8 g/dL
same,TBIL,[5],0.034 mg/dL
same,TC,[5],77.6 mg/dL
same,TG,[5],48 mg/dL
same,TP,[5],5.4 g/dL
same,gamma-GTP,[5],0 IU/L
same,TERMINAL_BW,[6],286.2 g
same,TERMINAL_BW,[7],351.2 g
same,TERMINAL_BW,[8],428.4 g
same,APTT,[6],16.1 s
same,Bas,[6],0%
same,Eos,[6],1.2%
same,Fbg,[6],195.8 mg/dL
same,Hb,[6],11.6 g/dL
same,Ht,[6],35.3%
same,Lym,[6],74.6%
same,MCH,[6],21.8 pg
same,MCHC,[6],32.8%
same,MCV,[6],66.4 fL
same,Mono,[6],9.2%
same,Neu,[6],15.4%
same,PT,[6],12.2 s
same,Plat,[6],111.4 x10_4/uL
same,RBC,[6],530.8 x10_4/ul
same,Ret,[6],7.7%
same,WBC,[6],99 x10_2/uL
same,APTT,[7],16.1 s
same,Bas,[7],0%
same,Eos,[7],1%
same,Fbg,[7],227 mg/dL
same,Hb,[7],12.8 g/dL
same,Ht,[7],38.9%
same,Lym,[7],70.8%
same,MCH,[7],20.8 pg
same,MCHC,[7],32.8%
same,MCV,[7],63.4 fL
same,Mono,[7],10.4%
same,Neu,[7],17.6%
same,PT,[7],12 s
same,Plat,[7],94.8 x10_4/uL
same,RBC,[7],614.6 x10_4/ul
same,Ret,[7],4.9%
same,WBC,[7],108.6 x10_2/uL
same,APTT,[8],16.1 s
same,Bas,[8],0%
same,Eos,[8],1.2%
same,Fbg,[8],220.8 mg/dL
same,Hb,[8],12.9 g/dL
same,Ht,[8],39.5%
same,Lym,[8],77.4%
same,MCH,[8],19.6 pg
same,MCHC,[8],32.6%
same,MCV,[8],60.2 fL
same,Mono,[8],7.8%
same,Neu,[8],13.4%
same,PT,[8],12.1 s
same,Plat,[8],87.6 x10_4/uL
same,RBC,[8],657.8 x10_4/ul
same,Ret,[8],3.2%
same,WBC,[8],104 x10_2/uL
same,KIDNEY_TOTAL,[6],0.8 g
same,KIDNEY_TOTAL,[7],0.9 g
same,KIDNEY_TOTAL,[8],0.9 g
same,LIVER,[6],14.7 g
same,LIVER,[7],16.3 g
same,LIVER,[8],18.6 g
same,A/G,[6],2.3
same,ALP,[6],1176 IU/L
same,ALT,[6],33 IU/L
same,AST,[6],67.6 IU/L
same,BUN,[6],20.8 mg/dL
same,CRE,[6],0.5 mg/dL
same,Ca,[6],11 mg/dL
same,Cl,[6],105.6 meq/L
same,DBIL,[6],0.014 mg/dL
same,GLC,[6],178.8 mg/dL
same,IP,[6],7.5 mg/dL
same,K,[6],4 meq/L
same,LDH,[6],77 IU/L
same,Na,[6],142 meq/L
same,PL,[6],135.4 mg/dL
same,RALB,[6],3.8 g/dL
same,TBIL,[6],0.034 mg/dL
same,TC,[6],73.8 mg/dL
same,TG,[6],43.4 mg/dL
same,TP,[6],5.4 g/dL
same,gamma-GTP,[6],0.4 IU/L
same,A/G,[7],2
same,ALP,[7],1156 IU/L
same,ALT,[7],36 IU/L
same,AST,[7],68.2 IU/L
same,BUN,[7],18.2 mg/dL
same,CRE,[7],0.4 mg/dL
same,Ca,[7],11 mg/dL
same,Cl,[7],107.6 meq/L
same,DBIL,[7],0.01 mg/dL
same,GLC,[7],190.4 mg/dL
same,IP,[7],7.4 mg/dL
same,K,[7],3.8 meq/L
same,LDH,[7],87.2 IU/L
same,Na,[7],145.8 meq/L
same,PL,[7],120 mg/dL
same,RALB,[7],3.7 g/dL
same,TBIL,[7],0.028 mg/dL
same,TC,[7],69.4 mg/dL
same,TG,[7],38.8 mg/dL
same,TP,[7],5.5 g/dL
same,gamma-GTP,[7],1 IU/L
same,A/G,[8],2.1
same,ALP,[8],951 IU/L
same,ALT,[8],29 IU/L
same,AST,[8],59.2 IU/L
same,BUN,[8],18.6 mg/dL
same,CRE,[8],0.4 mg/dL
same,Ca,[8],11 mg/dL
same,Cl,[8],105 meq/L
same,DBIL,[8],0.01 mg/dL
same,GLC,[8],179.6 mg/dL
same,IP,[8],6.2 mg/dL
same,K,[8],3.9 meq/L
same,LDH,[8],88.4 IU/L
same,Na,[8],141.2 meq/L
same,PL,[8],123.2 mg/dL
same,RALB,[8],3.9 g/dL
same,TBIL,[8],0.04 mg/dL
same,TC,[8],74.8 mg/dL
same,TG,[8],37.8 mg/dL
same,TP,[8],5.8 g/dL
same,gamma-GTP,[8],0 IU/L
